Data reported in US20090247542A1, “SYNTHESES AND PREPARATIONS OF POLYMORPHS OF CRYSTALLINE ARIPIPRAZOLE” (MEDICHEM, S.A., priority 2005, published 2009).

Assay: Hygroscopicity measurements (water content by Karl Fisher after humid storage)
Type: physicochemical
Details: for Hygroscopicity: water content (Karl Fisher) after 24 hours at 60° C./100% RH, then 24 hours at room temperature and about 30% RH
Method: vii. Hygroscopicity Measurements
One gram of the sample was accurately weighed in a weighing bottle (diameter 5 cm), covered with kimwipes and left to rest in 60° C./100% RH environment (water/dessicator). 24 hours later, the weighing bottle was removed, transferred to an environment of room temperature and about 30% RH (magnesium chloride hexahydrate saturated water solution/dessicator) and left to rest for 24 hours and the water content of the sample was measured by the Karl Fisher method.

SMILES	Hygroscopicity [%]	low hygroscopicity (moisture content) (after storing anhydrous aripiprazole Form J for 24 hours at 60° C. and a humidity level of 100%) [%]
O=C1CCc2ccc(OCCCCN3CCN(c4cccc(Cl)c4Cl)CC3)cc2N1 [Example 1, 7-{4-[4-(2,3-dichlorophenyl)-1-piperazinyl]-butoxy}-3,4-dihydrocarbostyril]	0.06	
O=C1CCc2ccc(OCCCCN3CCN(c4cccc(Cl)c4Cl)CC3)cc2N1 [Reference Example 2, 7-{4-[4-(2,3-dichlorophenyl)-1-piperazinyl]-butoxy}-3,4-dihydrocarbostyril, reference compound]	0.35	
O=C1CCc2ccc(OCCCCN3CCN(c4cccc(Cl)c4Cl)CC3)cc2N1 [aripiprazole Form J, 7-{4-[4-(2,3-dichlorophenyl)-1-piperazinyl]-butoxy}-3,4-dihydrocarbostyril]		≤ 0.5
